US9661848B2, “Substituted 4-cyan-3-(pyridyl)-4-phenylbutanoates, method for the production thereof and uses as herbicides and plant growth regulators” (BAYER CROPSCIENCE AG, priority 2012, dated 2017)

Tests used:
[1] = test system: Avena fatua; assay: Herbicidal post-emergence action; assay type: in vivo; conditions: post-emergence method; 0.32 kg of active substance per hectare
Method: (§1) Seeds of monocotyledonous and dicotyledonous weeds and crop plants were placed in sandy loam in wood-fibre pots, covered with soil and cultivated in a greenhouse under good growth conditions. 2 to 3 weeks after sowing, the test plants were treated at the one-leaf stage, where the compounds (I) according to the invention, formulated in the form of wettable powders (WP), were applied by spraying as aqueous suspension or emulsion at a water application rate of 600 l/ha (converted) with the addition of 0.2% of wetting agent to the green parts of the plants. After the test plants had been kept in the greenhouse under optimum growth conditions for about 3 weeks, the activity of the preparations was rated visually in comparison to untreated controls in per cent (%). For example, 100% activity=the plants have died, 50% herbicidal activity or damage=the plants have been reduced by 50% or the plant mass has been reduced by 50%, 0% activity=like control plants.

[2] = test system: Alopecurus myosuroides; assay: Herbicidal post-emergence action; assay type: in vivo; conditions: post-emergence method; 0.32 kg of active substance per hectare
Method: as §1

## COC(=O)C[C@@H](c1cncc(F)c1)[C@H](C#N)c1cccc(F)c1 [erythro-2-Ibb732]
[1]
  activity against Avena fatua: 90-100%
[2]
  activity against Alopecurus myosuroides: 90-100%
